Assay results reported in article PMC7587356, “High-Throughput Screening for Inhibitors of the SARS-CoV-2 Protease Using a FRET-Biosensor” (Molecules, 2020).
Structures can show the parent of a compound that is named as a salt. Where two headings read alike, the source gives them in different places.

Target: SARS-CoV-2 3CLpro (Severe acute respiratory syndrome coronavirus 2, UniProt P0DTD1)
Experiment: biochemical
Type: biochemical
Design: Replicate_1 / Replicate_2 / mean / mean (LOPAC_screen_w_protease): unit not given here
Conditions: for inhibition at 5 µM: 4 h
[1] = sheet LOPAC_screen_w_protease, primary screen with protease, mean of two replicates, read-out: mean
[2] = sheet LOPAC_screen_w_protease, primary screen with protease, replicate 1, read-out: Replicate_1
[3] = sheet LOPAC_screen_w_protease, primary screen with protease, replicate 2, read-out: Replicate_2
[4] = LOPAC1280 primary screen with protease, 5 µM compound, replicate 1, read-out: Replicate_1 (LOPAC_screen_w_protease)
[5] = LOPAC1280 primary screen with protease, 5 µM compound, replicate 2, read-out: Replicate_2 (LOPAC_screen_w_protease)
[6] = LOPAC1280 primary screen with protease, 5 µM compound, mean of two replicates
[7] = LOPAC1280 primary screen with protease, 5 µM compound, replicate 1
[8] = LOPAC1280 primary screen with protease, 5 µM compound, replicate 2
[9] = sheet LOPAC_screen_w_protease, LOPAC1280 primary screen at 5 µM, with protease, mean of the two replicates
[10] = sheet LOPAC_screen_w_protease, LOPAC1280 primary screen at 5 µM, with protease, replicate 1
[11] = sheet LOPAC_screen_w_protease, LOPAC1280 primary screen at 5 µM, with protease, replicate 2
[12] = sheet LOPAC_screen_w_protease, LOPAC1280 primary screen with protease, 5 µM compound, mean of the two replicates, read-out: mean
[13] = sheet LOPAC_screen_w_protease, LOPAC1280 primary screen with protease, 5 µM compound, replicate 1, read-out: Replicate_1
[14] = sheet LOPAC_screen_w_protease, LOPAC1280 primary screen with protease, 5 µM compound, replicate 2, read-out: Replicate_2
[15] = LOPAC1280 primary screen with protease, 5 µM compound, mean of the two replicates

Compound: CCCCCCC(C)(C)c1ccc([C@@H]2C[C@H](O)CC[C@H]2CCCO)c(O)c1 [CP55940]
- inhibition at 5 µM [1]: 2.22%
- inhibition at 5 µM [2]: 1.74%
- inhibition at 5 µM [3]: 2.71%

Compound: O=C(O)CCCCCCC1C(=O)NC(=O)N1CCC(O)C1CCCCC1 (centres unmarked) [BW 245C]
- Replicate_1 (LOPAC_screen_w_protease): 2.361
- Replicate_2 (LOPAC_screen_w_protease): 0.3585
- mean (LOPAC_screen_w_protease): 1.3595

Compound: CCN(CC)CC.Nc1ncnc2c1ncn2C1OC2COP(O)(=S)O[C@@H]2[C@@H]1O (some centres unmarked) [Rp-cAMPS triethylamine]
- Replicate_1: 2.931
- Replicate_2: 3.042
- mean: 2.9867

Compound: C[N+](C)(C)CCOC(N)=O [Carbachol]
- inhibition at 5 µM [4]: 1.69%
- inhibition at 5 µM [5]: 1.06%
- mean (LOPAC_screen_w_protease) [6]: 1.3763

Compound: trans-(±)-ACPD
- Replicate_1 (LOPAC_screen_w_protease) [7]: 2.281
- Replicate_2 (LOPAC_screen_w_protease) [8]: 1.598

Compound: Br.Br.N=C(N)SCCc1ccc(CCSC(=N)N)cc1 [1,4-PBIT dihydrobromide]
- mean [9]: 0.7618
- Replicate_1 [10]: 0.8182
- Replicate_2 [11]: 0.7055

Compound: COc1cc(NS(C)(=O)=O)ccc1Nc1c2ccccc2nc2ccccc12 [Amsacrine hydrochloride]
- inhibition at 5 µM [12]: 4.23%
- inhibition at 5 µM [13]: 4.22%
- inhibition at 5 µM [14]: 4.24%

Compound: COC(=O)c1c(C)[nH]c(C)c1C(=O)c1ccccc1Cc1ccccc1 [FPL 64176]
- mean (sheet LOPAC_screen_w_protease, primary screen with protease, 5 µM, mean of two replicates): 0.1984
- Replicate_1 (sheet LOPAC_screen_w_protease, primary screen with protease, 5 µM, replicate 1): 1.679
- Replicate_2 (sheet LOPAC_screen_w_protease, primary screen with protease, 5 µM, replicate 2): -1.282

Compound: Oc1ccc2c3c1O[C@H]1c4oc5ccccc5c4C[C@@]4(O)[C@@H](C2)N(CC2CC2)CC[C@]314 [Naltriben methanesulfonate]
- inhibition at 5 µM (read-out: Replicate_1): 4.4%
- inhibition at 5 µM (read-out: Replicate_2): 3%
- inhibition at 5 µM (read-out: mean): 3.7%

Compound: CC1(C)CCC(NC(=O)[C@@H](N)CCC(=O)O)CC1 [CR 2249]
- inhibition at 5 µM [12]: 5.2%
- inhibition at 5 µM [13]: 4.44%
- inhibition at 5 µM [14]: 5.96%

Compound: O=C1NC(=O)C(c2ccccc2)(c2ccccc2)N1 [Phenytoin sodium]
- inhibition at 5 µM [4]: 1.2%
- inhibition at 5 µM [5]: 2.6%
- mean (LOPAC_screen_w_protease) [15]: 1.899

Compound: O=C1c2c(O)cc(O)cc2O[C@H](c2ccc(O)c(O)c2)[C@H]1O (racemic) [(±)-Taxifolin]
- mean (LOPAC screen with protease) (sheet LOPAC_screen_w_protease, primary screen at 5 µM, mean of two replicates): 7.529
- Replicate_1 (LOPAC screen with protease) (sheet LOPAC_screen_w_protease, primary screen at 5 µM, replicate 1): 9.2588
- Replicate_2 (LOPAC screen with protease) (sheet LOPAC_screen_w_protease, primary screen at 5 µM, replicate 2): 5.799

Compound: O=C(O)/C=C\C(=O)O.c1cnc(N2CCN(Cc3ccc4c(c3)OCO4)CC2)nc1 [Piribedil maleate]
- mean [9]: 0.4342
- Replicate_1 [10]: -0.05723
- Replicate_2 [11]: 0.9256

Compound: Oc1cc(-c2ccccc2)nc2nc(Cl)ccc12
- mean (LOPAC_screen_w_protease) [15]: 1.995
- Replicate_1 (LOPAC_screen_w_protease) [7]: 0.8933
- Replicate_2 (LOPAC_screen_w_protease) [8]: 3.097

Compound: Cl.O=C(Cc1ccc(Cl)c(Cl)c1)N1CCCCC1CN1CCCC1 (centres unmarked) [BRL 52537 hydrochloride]
- mean (LOPAC_screen_w_protease) [6]: 1.672
- Replicate_1 (LOPAC_screen_w_protease) [7]: 2.192
- Replicate_2 (LOPAC_screen_w_protease) [8]: 1.152

Compound: C1CNCCN1.COc1cc(C(O)CO)ccc1O.COc1cc(C(O)CO)ccc1O (centres unmarked) [MHPG piperazine]
- Replicate_1: 4.5396
- Replicate_2: 3.9909
- mean: 4.265

Compound: COc1ccccc1N1CCN(CCN(C(=O)c2ccc(I)cc2)c2ccccn2)CC1.Cl [p-MPPI hydrochloride]
- mean (sheet LOPAC_screen_w_protease, primary screen with protease, compound at 5 µM, mean of two replicates): 3.1199
- Replicate_1 (sheet LOPAC_screen_w_protease, primary screen with protease, compound at 5 µM, replicate 1): 5.19
- Replicate_2 (sheet LOPAC_screen_w_protease, primary screen with protease, compound at 5 µM, replicate 2): 1.05

Compound: O=C(Nc1ccccc1)c1cc([N+](=O)[O-])ccc1Cl [GW9662]
- mean (LOPAC_screen_w_protease) [6]: 1.573
- Replicate_1 (LOPAC_screen_w_protease) [7]: 2.013
- Replicate_2 (LOPAC_screen_w_protease) [8]: 1.1319

Compound: CO/N=C(\C(=O)N[C@@H]1C(=O)N2C(C(=O)O)=C(COC(C)=O)CS[C@H]12)c1csc(N)n1 [Cefotaxime sodium]
- inhibition at 5 µM [1]: 2.42%
- inhibition at 5 µM [2]: 1.54%
- inhibition at 5 µM [3]: 3.3%

Compound: CC(=O)C(C)=NO [2,3-Butanedione monoxime]
- mean (LOPAC_screen_w_protease) [6]: 1.644
- Replicate_1 (LOPAC_screen_w_protease) [7]: 1.791
- Replicate_2 (LOPAC_screen_w_protease) [8]: 1.497

Compound: NCCCCN [Putrescine dihydrochloride]
- mean (LOPAC_screen_w_protease): 2.055
- inhibition at 5 µM (read-out: Replicate_1 (LOPAC_screen_w_protease)): 4.37%
- inhibition at 5 µM (read-out: Replicate_2 (LOPAC_screen_w_protease)): -0.258%
